Assay results taken from patent publication US20260258044A1, “PIPERIDINYL-METHYL-PURINE AMINE FUMARIC ACID SALTS, CRYSTALLINE FORMS, AND THEIR USE IN TREATING MEDICAL DISEASES AND CONDITIONS” (K36 Therapeutics, Inc., priority 2022, published 2026).
“Also recorded” adds a separate entry of the source.

Tests used:
Type in all cases: physicochemical
[1] = water solubility of the crystalline solid; details: 37° C.
[2] = hygroscopicity by dynamic vapor sorption; details: transitioned from 2% to 95% relative humidity
Procedure: Dynamic vapor sorption was performed using a Q5000SA. The sample (5-15 mg) was loaded into a metallic quartz sample pan, suspended from a microbalance, and exposed to a humidified stream of nitrogen gas. Weight changes were relative to a matching empty reference pan opposite the sample, suspended from the microbalance. The sample was held for a minimum of 10 min at each humidity level and only progressed to the next humidity level if there was <0.002% change in weight between measurements (interval: 5 s) or 60 min had elapsed. The following program was used: • 1. Equilibration at 50% RH • 2. 50% to 2% RH (50%, 40%, 30%, 20%, 10%, and 2% RH) • 3. 2% to 95% RH (2%, 10%, 20%, 30%, 40%, 50%, 60%, 70%, 80%, 90%, and 95% RH) • 4. 95% to 2% RH (95%, 80%, 70%, 60%, 50%, 40%, 30%, 20%, 10%, and 2% RH) • 5. 2% to 50% RH (2%, 10%, 20%, 30%, 40%, and 50% RH).

[3] = accelerated stability study (HPLC and XRPD of recovered salts); details: for HPLC Purity (Area %) After Study / XRPD After Study: after one week at 75% relative humidity, 40° C.; for HPLC Purity (Area %) Before Study: before storage
Procedure: An accelerated stability study was conducted on crystalline Form 1 (prepared according to Procedure 2 of Example 1), Form 2, Form 3 (prepared according to Procedure 1 of Example 3), and Form 4 of (S)-1-((R)-3-amino-1-(4-((6-amino-9H-purin-9-yl)methyl)-6-(2,5-difluoro-4-methoxyphenyl) pyridin-3-yl)piperidin-3-yl)-2,2-difluoroethan-1-ol fumaric acid salt. Approximately 12 mg of each solid was placed into separate 4-mL vials, and then the vials were covered with a Kimwipe. The vials were stored for one week inside a stability chamber producing a relative humidity of 75% at 40° C.

water solubility ([1]; after 30 minutes) [µg/mL] | water solubility ([1]; after 24 hours) [µg/mL] | increase in weight [2] [%] | increase in weight as molar equivalents of water [2] | HPLC Purity (Area %) After Study [3] [Area %] | HPLC Purity (Area %) Before Study [3] [Area %] | Structure (SMILES) | XRPD After Study [3]
700 | 600 | 5.5 | approximately 2.0 molar equivalents | 99.59 | 99.56 | COc1cc(F)c(-c2cc(Cn3cnc4c(N)ncnc43)c(N3CCC[C@](N)([C@H](O)C(F)F)C3)cn2)cc1F.O=C(O)/C=C/C(=O)O [Form 4, (S)-1-((R)-3-amino-1-(4-((6-amino-9H-purin-9-yl)methyl)-6-(2,5-difluoro-4-methoxyphenyl)pyridin-3-yl)piperidin-3-yl)-2,2-difluoroethan-1-ol Fumaric Acid Salt] | Conversion to Form 3
300 | 1400 | 1.5 |  | 99.52 | 99.50 | COc1cc(F)c(-c2cc(Cn3cnc4c(N)ncnc43)c(N3CCC[C@](N)([C@H](O)C(F)F)C3)cn2)cc1F.O=C(O)/C=C/C(=O)O [Form 1, (S)-1-((R)-3-amino-1-(4-((6-amino-9H-purin-9-yl)methyl)-6-(2,5-difluoro-4-methoxyphenyl)pyridin-3-yl)piperidin-3-yl)-2,2-difluoroethan-1-ol Fumaric Acid Salt] | No change; also recorded: Unchanged
800 | 700 | 5.1 | approximately 1.8 molar equivalents | 99.56 | 99.58 | COc1cc(F)c(-c2cc(Cn3cnc4c(N)ncnc43)c(N3CCC[C@](N)([C@H](O)C(F)F)C3)cn2)cc1F.O=C(O)/C=C/C(=O)O [Form 3, (S)-1-((R)-3-amino-1-(4-((6-amino-9H-purin-9-yl)methyl)-6-(2,5-difluoro-4-methoxyphenyl)pyridin-3-yl)piperidin-3-yl)-2,2-difluoroethan-1-ol Fumaric Acid Salt] | Increased crystallinity; also recorded: Higher Crystallinity
2200 | 1100 |  |  | 99.49 | 99.51 | COc1cc(F)c(-c2cc(Cn3cnc4c(N)ncnc43)c(N3CCC[C@](N)([C@H](O)C(F)F)C3)cn2)cc1F.O=C(O)/C=C/C(=O)O [Form 2, (S)-1-((R)-3-amino-1-(4-((6-amino-9H-purin-9-yl)methyl)-6-(2,5-difluoro-4-methoxyphenyl)pyridin-3-yl)piperidin-3-yl)-2,2-difluoroethan-1-ol Fumaric Acid Salt] | Slight shifting of peaks at higher diffraction angles (2θ); also recorded: Slight Shifting of Certain
